In US9850247B2 (Almac Discovery Limited, priority 2013, dated 2017):

Key:
[1] = CLint estimates using human liver microsomes (Method 4); assay type: in vitro ADME; details: pH 7.4, 1 μM compound, read-out: Mics - CLint (HLM CLint)
In short: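 Depletion measured by LC/MS/MS in MRM mode over 2–50 min after starting reactions with 1 mM NADPH. Incubations used 0.5 mg/mL human liver microsomal protein, 1 μM compound, 0.1% DMSO, pH 7.4 phosphate buffer, 37 °C. ln peak area plotted against time; the gradient gave t½ and intrinsic clearance.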

[2] = target: T1, human ether a go-go related gene (hERG) K′ channel (Homo sapiens, UniProt Q12809); test: hERG activity, IonWorks patch clamp electrophysiology (Method 6); assay type: cell-based
T1 construct: Essen BioScience
T1 sequence (Q12809 whole entry): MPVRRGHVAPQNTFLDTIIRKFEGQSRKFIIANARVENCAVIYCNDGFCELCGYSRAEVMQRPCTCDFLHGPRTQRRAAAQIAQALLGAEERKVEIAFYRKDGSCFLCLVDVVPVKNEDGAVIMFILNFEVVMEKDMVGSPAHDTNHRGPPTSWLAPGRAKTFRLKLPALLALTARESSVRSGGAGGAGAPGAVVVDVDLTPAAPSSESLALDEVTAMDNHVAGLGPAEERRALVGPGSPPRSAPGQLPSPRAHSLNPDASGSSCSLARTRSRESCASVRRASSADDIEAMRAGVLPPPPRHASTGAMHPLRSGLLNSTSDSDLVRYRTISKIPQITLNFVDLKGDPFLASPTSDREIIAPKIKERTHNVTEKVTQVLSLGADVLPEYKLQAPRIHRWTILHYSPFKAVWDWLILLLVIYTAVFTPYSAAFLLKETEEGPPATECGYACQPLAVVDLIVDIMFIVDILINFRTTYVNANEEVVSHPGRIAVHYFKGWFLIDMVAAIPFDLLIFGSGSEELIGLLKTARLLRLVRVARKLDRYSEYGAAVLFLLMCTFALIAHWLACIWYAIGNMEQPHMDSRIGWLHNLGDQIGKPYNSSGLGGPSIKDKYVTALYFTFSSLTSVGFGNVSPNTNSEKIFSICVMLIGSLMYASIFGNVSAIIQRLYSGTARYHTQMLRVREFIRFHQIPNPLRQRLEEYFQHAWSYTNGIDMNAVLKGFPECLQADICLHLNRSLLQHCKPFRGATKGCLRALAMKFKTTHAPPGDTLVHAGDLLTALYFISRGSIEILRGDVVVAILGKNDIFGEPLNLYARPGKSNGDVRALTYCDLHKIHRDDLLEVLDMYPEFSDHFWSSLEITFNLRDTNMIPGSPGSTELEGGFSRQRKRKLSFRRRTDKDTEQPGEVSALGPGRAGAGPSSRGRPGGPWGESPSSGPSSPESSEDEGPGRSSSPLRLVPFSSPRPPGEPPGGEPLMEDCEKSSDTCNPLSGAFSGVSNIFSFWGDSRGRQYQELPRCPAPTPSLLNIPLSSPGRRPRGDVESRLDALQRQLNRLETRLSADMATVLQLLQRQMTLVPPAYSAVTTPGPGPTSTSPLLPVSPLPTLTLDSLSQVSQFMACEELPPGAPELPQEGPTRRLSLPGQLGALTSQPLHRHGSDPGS
Procedure: Method 6: Determination of hERG Activity
Compounds were tested for inhibition of the human ether a go-go related gene (hERG) K′ channel using IonWorks patch clamp electrophysiology at Essen BioScience. 8-Point concentration-response curves of the effect of compound on hERG current as a percentage of pre-compound signal were generated using 3-fold serial dilutions from 11 μM and results are reported as IC50 in μM.

[3] = tested on: phospho-cdc2 (Tyr15) in HT-29 cells; test: Effect on phosphorylation of cdc2 at Tyr15, PathScan ELISA (Method 2); assay type: cell-based; details: Homo sapiens, 8 h, eight hours incubation, read-out: HT29 pCDC2 method 2
In short: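 HT-29 cells exposed to compound for eight hours at 37° C., then lysed. Phospho-cdc2 (Tyr15) measured by sandwich ELISA with HRP/TMB read-out at 450 nm. Percent of DMSO control plotted vs concentration; IC50 from non-linear regression.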

| Compound | microsomal CLint at 1 μM [1] [µL/min/mg] | IC50 [2] [nM] | IC50 [3] [nM] | hERG inhibition compared with prior art analogues ([2]; versus analogues from WO2013126656, WO2013013031 and WO2013059485) |
| --- | --- | --- | --- | --- |
| C[C@@H]1CN(c2ccc(Nc3ncc4c(n3)N(C)CN(c3c(Cl)cccc3Cl)C4=O)cc2)CCN1 [Example 16, (R)-3-(2,6-Dichlorophenyl)-1-methyl-7-((4-(3-methylpiperazin-1-yl)phenyl)amino)-2,3-dihydropyrimido[4,5-d]pyrimidin-4(1H)-one] | ≤ 15 | > 10000 | ≤ 100 |  |
| CN1CN(c2c(Cl)cccc2Cl)C(=O)c2cnc(Nc3ccc(N4CCNCC4)cc3)nc21 [Example 1, 3-(2,6-Dichlorophenyl)-1-methyl-7-((4-(piperazin-1-yl)phenyl)amino)-2,3-dihydropyrimido[4,5-d]pyrimidin-4(1H)-one] | 15 to 50 | > 10000 | 100 to 1000 |  |
| CNCc1cc(Nc2ncc3c(n2)N(C)CN(c2c(Cl)cccc2Cl)C3=O)ccc1N1CCOCC1 [Example 5, 3-(2,6-Dichlorophenyl)-1-methyl-7-((3-((methylamino)methyl)-4-morpholinophenyl)amino)-2,3-dihydropyrimido[4,5-d]pyrimidin-4(1H)-one] | ≤ 15 |  | 100 to 1000 | lower hERG inhibition |
| Cc1cc(Nc2ncc3c(n2)N(C)CN(c2c(Cl)cccc2Cl)C3=O)ccc1N1CCNCC1 [Example 6, 3-(2,6-Dichlorophenyl)-1-methyl-7-((3-methyl-4-(piperazin-1-yl)phenyl)amino)-2,3-dihydropyrimido[4,5-d]pyrimidin-4(1H)-one] | 15 to 50 | > 10000 | ≤ 100 |  |
| C[C@@H]1CN(c2ccc(Nc3ncc4c(n3)N(C)CN(c3c(F)cccc3Cl)C4=O)cc2)CCN1 [Example 53, (R)-3-(2-chloro-6-fluorophenyl)-1-methyl-7-((4-(3-methylpiperazin-1-yl)phenyl)amino)-2,3-dihydropyrimido[4,5-d]pyrimidin-4(1H)-one] | ≤ 15 |  | ≤ 100 |  |
